# Assay results taken from paper PMC6813295, “A tumour-selective cascade activatable self-detained system for drug delivery and cancer imaging” (Nature Communications, 2019).
# Where a SMILES comes first, the peptide text is derived from it. The star is where a group is joined. X1 = CC1(C)C(=CC=C2CCCC(C=CC3=[N+](CCCCCC(=O)O)c4ccccc4C3(C)C)=C2*)N(CCCCCC(=O)O)c2ccccc21
# How the values were obtained:
# [1] = Self-assembly behaviour in water (CD, TEM); assay type: physicochemical
# Protocol: Fig. 2 The structure conformations and self-assembly properties of molecule 1 in aqueous solution. a Illustration of the self-assembly strategy of molecule 1. b CD spectra of molecule 1 and molecule 4 in deionized water at a concentration of 1 μM. c FTIR spectra of molecule 1 in a monomeric state and molecule 4 in a fibrous assembled state. The arrows identify the typical characteristic peaks of the antiparallel β-sheet structure. d TEM image of self-assembled β-sheet nanofibrils of molecule 1 after treatment with caspase-3 (substrate-to-enzyme ratio of 1 μM/U) in HEPES buffer (50 mM, pH 7.4) for 2 h. The manual measurement of the nanofibril diameter is shown in the zoomed image, and the computational simulation result for the length of molecule 4 is inserted. e WAXS and computational simulation results of the β-sheet self-assemblies (molecule 4) identified the β-sheet and laminate spacing of the structures. f The concentration-dependent CD spectra of molecule 4 in the concentration range of 0.5–10 μM. g Time-dependent TEM images of molecule 4 from 10 min to 12 h for monitoring the growth process of the nanofibrous structures. h Temperature-dependent CD intensity changes at 220 nm of molecules 1 and 4 with a heating rate of 1 °C/min and an equilibrium period of 30 s to reveal the self-assembly mechanisms. Scale bar: 100 nm […]
# microscopy (UltraVIEW VoX). […]
# [2] = assay type: physicochemical
# Protocol: microscopy (UltraVIEW VoX).
# H460 cells (1 x 10^5 cells per well) were seeded in a confocal microscopy dish (MatTek). After culture for 24 h, the cells were treated with P7 (XIAP inhibitor) (50 μM) or […] (caspase inhibitor) (10 μM) for 3 h and followed by PBS washing. And then the molecule 1 (50 μM) and 2 (50 μM) were individually added for 1 h and followed by PBS washing and fresh medium replacement.
# After further 6 h of incubation, the cells were washed twice by PBS and stained with bisBenzimide H 33342 trihydrochloride (Hoechst 33342) (1 mg ml-1; Life Technologies) at 37 °C for 10 min. […]
# [Cy]0 is the initial concentration of the molecule 1 or 4, [Cy]t is the concentration of the molecule 1 or […] after the irradiation of t min. Based on Beer rule, it has the linear relation between the concentration of the molecule 1 or 4 and the absorbance in maximal wavelength for the low concentration cyanine dye. […]
# A0 is the absorbance in maximal wavelength before the irradiation, and At is the absorbance in maximal wavelength after the irradiation. […]
# The pathway of molecule 1 entering cells. […] Subsequently, H460 cells were treated with molecule 1 (50 uM), after 2 h of incubation at 37 ℃ the medium was removed and the cells were washed three times with PBS and analysed by confocal laser scanning […]
structure (smiles),measurement,setting,value
CC[C@H](C)[C@H](NC(=O)[C@@H]1CCCN1C(=O)[C@@H](NC(=O)[C@H](C)N)C(C)C)C(=O)N[C@@H](C)C(=O)N[C@@H](CCC(N)=O)C(=O)N[C@@H](CCCCN)C(=O)N[C@@H](CC(=O)O)C(=O)N[C@@H](CCC(=O)O)C(=O)N[C@H](C(=O)N[C@@H](CC(=O)O)C(=O)N[C@@H](CCCCN)C(=O)N[C@@H](CC(C)C)C(=O)N[C@H](C(=O)N[C@@H](Cc1ccccc1)C(=O)N[C@@H](Cc1ccccc1)C(=O)N[C@@H](C)C(=O)N[C@@H](CCC(=O)O)C(=O)N[C@@H](CSC1=C(C=CC2=[N+](CCCCCC(=O)O)c3ccccc3C2(C)C)CCCC1=CC=C1N(CCCCCC(=O)O)c2ccccc2C1(C)C)C(=O)NCC(=O)O)C(C)C)C(C)C [molecule 1] (H-AVPIAQKDEVDKLVFFAEC(X1)G-OH),secondary structure by CD,[1]; 1 μM in deionized water,random coiled conformation
same,"state in water (dissolved or fibrous structures; TEM, CD)","[1]; deionized water, same conditions, TEM 50 μM, from 1% HFIP, 24 h",well-dissolved
same,photobleaching after irradiation for 6 h,"[2]; irradiation 6 h, pure water, Suppl. Fig. 16: xenon flash lamp, 5 μM in PBS buffer 10 mM pH 7.4, r.t., absorbance at 780 nm",42%
same,photodegradation rate of molecule 1 relative to that of 4,"[2]; rate constants k from ln(A0/At) = kt, tested in parallel",7.5 fold
